Results published in PubChem BioAssay (NCI).
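A five-concentration, 48-hour dose response in 96-well plates underlies each endpoint, interpolated linearly between surrounding concentrations. TGI is the concentration that stops growth completely.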

Experiments:
Assay in all cases: growth of human tumour cells (NCI), 48 h
[1] = tested on: MDA-MB-435
[2] = tested on: IGROV1 ovarian
[3] = tested on: RPMI-8226 leukemia
[4] = tested on: PC-3 prostate
[5] = tested on: RXF 393 renal
[6] = tested on: SF-295 CNS
[7] = tested on: NCI-H23 lung
[8] = tested on: SF-268 CNS
[9] = tested on: DU-145 prostate
[10] = tested on: COLO 205 colon
[11] = tested on: SK-MEL-28 melanoma
[12] = tested on: OVCAR-3 ovarian
[13] = tested on: OVCAR-5 ovarian
[14] = tested on: EKVX NSCLC
[15] = tested on: HS 578T breast
[16] = tested on: HCT-116 colon
[17] = tested on: SNB-19 CNS
[18] = tested on: HT29 colon
[19] = tested on: KM20L2 colon
[20] = tested on: SF-539 CNS
[21] = tested on: MALME-3M melanoma
[22] = tested on: MCF7 breast
[23] = tested on: SNB-75 CNS
[24] = tested on: CAKI-1 renal
[25] = tested on: MOLT-4 leukemia
[26] = tested on: UACC-62 melanoma
[27] = tested on: SNB-78 CNS
[28] = tested on: MDA-MB-231 breast
[29] = tested on: LOX IMVI melanoma
[30] = tested on: HOP-92 NSCLC
[31] = tested on: ACHN renal
[32] = tested on: SK-MEL-5 melanoma
[33] = tested on: DMS 114 small cell lung
[34] = tested on: SK-MEL-2 melanoma
[35] = tested on: XF 498 CNS
[36] = tested on: KM12 colon
[37] = tested on: 786-0 renal
[38] = tested on: NCI-H460 lung
[39] = tested on: OVCAR-8 ovarian
[40] = tested on: CCRF-CEM leukemia
[41] = tested on: M19-MEL melanoma
[42] = tested on: UO-31 renal
[43] = tested on: NCI-H226 lung
[44] = tested on: SK-OV-3 ovarian
[45] = tested on: K-562 leukemia
[46] = tested on: NCI-H522 lung
[47] = tested on: UACC-257 melanoma
[48] = tested on: A498 renal
[49] = tested on: HCT-15 colon
[50] = tested on: MDA-N
[51] = tested on: BT-549 breast
[52] = tested on: T-47D breast
[53] = tested on: DMS 273 small cell lung
[54] = tested on: HL-60(TB) leukemia
[55] = tested on: A549 NSCLC
[56] = tested on: HCC-2998 colon
[57] = tested on: HOP-18 NSCLC
[58] = tested on: SN12C renal
[59] = tested on: TK-10 renal
[60] = tested on: M14 melanoma
[61] = tested on: OVCAR-4 ovarian
[62] = tested on: SW-620 colon
[63] = tested on: DLD-1 colon
[64] = tested on: NCI/ADR-RES ovarian
[65] = tested on: LXFL 529 NSCLC
[66] = tested on: U251 CNS
[67] = tested on: HOP-62 NSCLC

C=C1C(=O)OC2CC3(C)OC3CC/C(C)=C/C(OC(C)=O)C12 (configuration not stated)
TGI [1]: 25.2 µM | TGI [2]: 35.3 µM | TGI [3]: 14.3 µM | TGI [4]: 26 µM | TGI [5]: 16.4 µM | TGI [6]: 27.4 µM | TGI [7]: 27.6 µM | TGI [8]: 34.8 µM | TGI [9]: 28.4 µM | TGI [10]: 4.03 µM | TGI [11]: 16.8 µM | TGI [12]: 34.7 µM | TGI [13]: 23 µM | TGI [14]: 32.7 µM | TGI [15]: 42.9 µM | TGI [16]: 14.6 µM | TGI [17]: 31 µM | TGI [18]: 13.5 µM | TGI [19]: 20 µM | TGI [20]: 16.8 µM | TGI [21]: 5.9 µM | TGI [22]: 18 µM | TGI [23]: 22 µM | TGI [24]: 6.24 µM | TGI [25]: 13.9 µM | TGI [26]: 22.9 µM | TGI [27]: 35.1 µM | TGI [28]: 24.8 µM | TGI [29]: 12.8 µM | TGI [30]: 4.69 µM | TGI [31]: 23.3 µM | TGI [32]: 20.4 µM | TGI [33]: 23 µM | TGI [34]: 31.5 µM | TGI [35]: 4.12 µM | TGI [36]: 39.9 µM | TGI [37]: 14.2 µM | TGI [38]: 31.6 µM | TGI [39]: 13.6 µM | TGI [40]: 12.7 µM | TGI [41]: 22.3 µM | TGI [42]: 26.5 µM | TGI [43]: 26.8 µM | TGI [44]: 37 µM | TGI [45]: 15.4 µM | TGI [46]: 2.64 µM | TGI [47]: 22.6 µM | TGI [48]: 29.9 µM | TGI [49]: 19.3 µM | TGI [50]: 18.7 µM | TGI [51]: 22.2 µM | TGI [52]: 15.9 µM | TGI [53]: 31.2 µM | TGI [54]: 3.4 µM | TGI [55]: 33.7 µM | TGI [56]: 31.6 µM | TGI [57]: 23.5 µM | TGI [58]: 26.3 µM | TGI [59]: 12.8 µM | TGI [60]: 9.86 µM | TGI [61]: 16.1 µM | TGI [62]: 4.89 µM | TGI [63]: 7.81 µM | TGI [64]: 30.1 µM | TGI [65]: 5.92 µM | TGI [66]: 33.5 µM | TGI [67]: 33.5 µM
